In patent US10538498B2, “1,3,4-oxadiazole sulfonamide derivative compounds as histone deacetylase 6 inhibitor, and the pharmaceutical composition comprising the same” (Chong Kun Dang Pharmaceutical Corp., priority 2015, dated 2020):

Target: T1, human recombinant HDAC6 (Homo sapiens, UniProt Q9UBN7)
T1 construct: purchased Calbiochem 382180
T1 sequence (Q9UBN7 1-1215): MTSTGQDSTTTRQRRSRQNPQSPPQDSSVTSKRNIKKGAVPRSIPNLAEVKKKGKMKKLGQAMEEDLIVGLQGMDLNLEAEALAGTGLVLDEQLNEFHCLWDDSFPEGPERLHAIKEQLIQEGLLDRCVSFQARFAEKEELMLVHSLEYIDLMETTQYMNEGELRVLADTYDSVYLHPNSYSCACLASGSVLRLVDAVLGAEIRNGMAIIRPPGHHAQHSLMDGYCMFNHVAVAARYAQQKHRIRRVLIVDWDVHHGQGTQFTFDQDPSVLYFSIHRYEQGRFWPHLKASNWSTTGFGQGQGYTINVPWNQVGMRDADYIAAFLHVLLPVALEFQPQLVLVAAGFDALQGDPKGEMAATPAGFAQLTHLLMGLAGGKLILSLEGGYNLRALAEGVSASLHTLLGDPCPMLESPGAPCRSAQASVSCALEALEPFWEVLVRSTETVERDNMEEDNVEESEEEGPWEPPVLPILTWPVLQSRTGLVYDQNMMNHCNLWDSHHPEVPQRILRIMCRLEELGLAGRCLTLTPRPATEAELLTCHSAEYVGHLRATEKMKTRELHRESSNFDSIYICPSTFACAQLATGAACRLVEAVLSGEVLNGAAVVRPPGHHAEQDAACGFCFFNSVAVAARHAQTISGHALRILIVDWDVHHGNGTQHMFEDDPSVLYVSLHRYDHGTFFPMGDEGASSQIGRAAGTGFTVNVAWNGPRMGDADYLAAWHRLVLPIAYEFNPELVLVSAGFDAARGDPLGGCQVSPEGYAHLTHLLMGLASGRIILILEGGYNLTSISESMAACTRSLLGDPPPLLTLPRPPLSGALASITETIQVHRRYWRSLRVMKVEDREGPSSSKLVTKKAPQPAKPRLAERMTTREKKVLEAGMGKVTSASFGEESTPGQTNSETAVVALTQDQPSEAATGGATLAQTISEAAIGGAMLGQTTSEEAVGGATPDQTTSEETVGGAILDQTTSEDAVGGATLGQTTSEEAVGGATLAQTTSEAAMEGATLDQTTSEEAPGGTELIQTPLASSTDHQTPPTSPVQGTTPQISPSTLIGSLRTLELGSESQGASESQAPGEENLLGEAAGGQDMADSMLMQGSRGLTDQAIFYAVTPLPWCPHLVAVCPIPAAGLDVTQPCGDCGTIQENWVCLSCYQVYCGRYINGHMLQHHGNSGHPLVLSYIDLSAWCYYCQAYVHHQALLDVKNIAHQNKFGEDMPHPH
Experiment: HDAC6 enzyme activity inhibition assay (HDAC Fluorimetric Drug Discovery Kit)
Format: biochemical
Conditions: for HDAC6 selectivity (fold): HDAC1 vs HDAC6; for IC50: same protocol as the HDAC1 enzyme activity test
Procedure, shortened: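 5-fold compound dilutions + 0.3 μg enzyme + 10 μM Fluor de Lys-SIRT1 substrate, 60 min, 30° C; Developer II 30 min; fluorescence Ex 360/Em 460; IC50 by curve fit.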

| SMILES | HDAC6 selectivity (fold) | IC50 |
| --- | --- | --- |
| C[C@@H]1CN(CCS(=O)(=O)N(Cc2ccc(-c3nnc(C(F)F)o3)cc2)c2ccccc2)C[C@H](C)N1 [Compound 11632, N-(4-(5-(difluoromethyl)-1,3,4-oxadiazol-2-yl)benzyl)-2-((3S,5R)-3,5-dimethylpiperazin-1-yl)-N-phenylethane-1-sulfonamide] | 1587 fold | 63 nM |
| CS(=O)(=O)N(Cc1ccc(-c2nnc(C(F)F)o2)cc1)c1cncnc1 [Compound 11636, N-(4-(5-(difluoromethyl)-1,3,4-oxadiazol-2-yl)benzyl)-N-(pyrimidin-5-yl)methanesulfonamide] | 862 fold | 116 nM |
| C[C@@H]1CN(CCCS(=O)(=O)N(Cc2ccc(-c3nnc(C(F)F)o3)cc2)c2ccccc2)C[C@H](C)N1C [Compound 11665, N-(4-(5-(difluoromethyl)-1,3,4-oxadiazol-2-yl)benzyl)-N-phenyl-3-((3R,5S)-3,4,5-trimethylpiperazin-1-yl)propane-1-sulfonamide] | 5263 fold | 19 nM |
| CS(=O)(=O)N(Cc1ccc(-c2nnc(C(F)F)o2)cc1)CC12CC3CC(CC(C3)C1)C2 [Compound 11668, N-((adamantan-1-yl)methyl)-N-(4-(5-(difluoromethyl)-1,3,4-oxadiazol-2-yl)benzyl)methanesulfonamide] | 724 fold | 138 nM |
| CS(=O)(=O)N(Cc1ccc(-c2nnc(C(F)F)o2)cn1)CC12CC3CC(CC(C3)C1)C2 [Compound 11669, N-((adamantan-1-yl)methyl)-N-((5-(5-(difluoromethyl)-1,3,4-oxadiazol-2-yl)pyridin-2-yl)methyl)methanesulfonamide] | 900 fold | 111 nM |
| O=C(OCC1CCN(CCS(=O)(=O)N(Cc2ccc(-c3nnc(C(F)F)o3)cc2)c2ccccc2)CC1)C(F)F [Compound 11676, (1-(2-(N-(4-(5-(difluoromethyl)-1,3,4-oxadiazol-2-yl)benzyl)-N-Phenylsulfamoyl)ethyl)piperidin-4-yl)methyl 2,2-difluoroacetate] | 1408 fold | 71 nM |
| CC(C)(C)OC(=O)N(C(=O)C(F)F)C1CCN(CCS(=O)(=O)N(Cc2ccc(-c3nnc(C(F)F)o3)cc2)c2ccccc2)CC1 [Compound 11677, tert-butyl 2,2-difluoroacetyl(1-(2-(N-(4-(5-(difluoromethyl)-1,3,4-oxadiazol-2-yl)benzyl)-N-phenylsulfamoyl)ethyl)piperidin-4-yl)carbamate] | 1754 fold | 57 nM |
| O=S(=O)(C1CCN(C2COC2)CC1)N(Cc1ccc(-c2nnc(C(F)F)o2)cc1)c1cccc(Cl)c1 [Compound 11681, N-(3-chlorophenyl)-N-(4-(5-(difluoromethyl)-1,3,4-oxadiazol-2-yl)benzyl)-1-(oxetan-3-yl)piperidine-4-sulfonamide] | 6667 fold | 15 nM |
| Cc1cccc(N(Cc2ccc(-c3nnc(C(F)F)o3)cc2)S(=O)(=O)C2CCN(C3COC3)CC2)c1 [Compound 11682, N-(4-(5-(difluoromethyl)-1,3,4-oxadiazol-2-yl)benzyl)-1-(oxetan-3-yl)-N-(m-tolyl)piperidine-4-sulfonamide] | 4545 fold | 22 nM |
| O=S(=O)(C1CCN(C2COC2)CC1)N(Cc1ccc(-c2nnc(C(F)F)o2)cn1)c1cccc(Cl)c1 [Compound 11683, N-(3-chlorophenyl)-N-((5-(5-(difluoromethyl)-1,3,4-oxadiazol-2-yl)pyridin-2-yl)methyl)-1-(oxetan-3-yl)piperidine-4-sulfonamide] | 14285 fold | 7 nM |
| Cc1cccc(N(Cc2ccc(-c3nnc(C(F)F)o3)cn2)S(=O)(=O)C2CCN(C3COC3)CC2)c1 [Compound 11684, N-((5-(5-(difluoromethyl)-1,3,4-oxadiazol-2-yl)pyridin-2-yl)methyl)-1-(oxetan-3-yl)-N-(m-tolyl)piperidine-4-sulfonamide] | 6250 fold | 16 nM |
| CN(C)CCCS(=O)(=O)N(Cc1ccc(-c2nnc(C(F)F)o2)cc1)c1ccccc1 [Compound 11685, N-(4-(5-(difluoromethyl)-1,3,4-oxadiazol-2-yl)benzyl)-3-(dimethylamino)-N-phenylpropane-1-sulfonamide] | 5882 fold | 17 nM |

Results, then the compound that gave them:

| HDAC6 selectivity (fold) | IC50 | SMILES |
| --- | --- | --- |
| 1041 fold | 96 nM | O=S(=O)(CCN1CCCCC1)N(Cc1ccc(-c2nnc(C(F)F)o2)cc1)c1ccccc1 [Compound 11629, N-(4-(5-(difluoromethyl)-1,3,4-oxadiazol-2-yl)benzyl)-N-phenyl-2-(piperidin-1-yl)ethane-1-sulfonamide] |
| 3225 fold | 31 nM | CN1CCN(CCS(=O)(=O)N(Cc2ccc(-c3nnc(C(F)F)o3)cc2)c2ccccc2)CC1 [Compound 11630, N-(4-(5-(difluoromethyl)-1,3,4-oxadiazol-2-yl)benzyl)-2-(4-methylpiperazin-1-yl)-N-phenylethane-1-sulfonamide] |
| 436 fold | 229 nM | CC(C)(C)OC(=O)N1CCN(CCS(=O)(=O)N(Cc2ccc(-c3nnc(C(F)F)o3)cc2)c2ccccc2)CC1 [Compound 11631, tert-butyl 4-(2-(N-(4-(5-(difluoromethyl)-1,3,4-oxadiazol-2-yl)benzyl)-N-phenylsulfamoyl)ethyl)piperazine-1-carboxylate] |
| 2173 fold | 46 nM | CC(=O)N1CCN(CCS(=O)(=O)N(Cc2ccc(-c3nnc(C(F)F)o3)cc2)c2ccccc2)CC1 [Compound 11633, 2-(4-acetylpiperazin-1-yl)-N-(4-(5-(difluoromethyl)-1,3,4-oxadiazol-2-yl)benzyl)-N-phenylethane-1-sulfonamide] |
| 2083 fold | 48 nM | CS(=O)(=O)N1CCN(CCS(=O)(=O)N(Cc2ccc(-c3nnc(C(F)F)o3)cc2)c2ccccc2)CC1 [Compound 11634, N-(4-(5-(difluoromethyl)-1,3,4-oxadiazol-2-yl)benzyl)-2-(4-(methylsulfonyl)piperazin-1-yl)-N-phenylethane-1-sulfonamide] |
| 1724 fold | 58 nM | O=S(=O)(CCN1CCOCC1)N(Cc1ccc(-c2nnc(C(F)F)o2)cc1)c1ccccc1 [Compound 11655, N-(4-(5-(difluoromethyl)-1,3,4-oxadiazol-2-yl)benzyl)-2-morpholino-N-phenylethanesulfonamide] |
| 1587 fold | 63 nM | CC(=O)N1CCN(CCCS(=O)(=O)N(Cc2ccc(-c3nnc(C(F)F)o3)cc2)c2ccccc2)CC1 [Compound 11656, 3-(4-acetylpiperazin-1-yl)-N-(4-(5-(difluoromethyl)-1,3,4-oxadiazol-2-yl)benzyl)-N-phenylpropane-1-sulfonamide] |
| 1219 fold | 82 nM | O=S(=O)(CCCN1CCCCC1)N(Cc1ccc(-c2nnc(C(F)F)o2)cc1)c1ccccc1 [Compound 11657, N-(4-(5-(difluoromethyl)-1,3,4-oxadiazol-2-yl)benzyl)-N-phenyl-3-(piperidin-1-yl)propane-1-sulfonamide] |
| 2500 fold | 40 nM | CN1CCN(CCCS(=O)(=O)N(Cc2ccc(-c3nnc(C(F)F)o3)cc2)c2ccccc2)CC1 [Compound 11658, N-(4-(5-(difluoromethyl)-1,3,4-oxadiazol-2-yl)benzyl)-3-(4-methylpiperazin-1-yl)-N-phenylpropane-1-sulfonamide] |
| 578 fold | 173 nM | O=S(=O)(CCN1CCN(Cc2ccccc2)CC1)N(Cc1ccc(-c2nnc(C(F)F)o2)cc1)c1ccccc1 [Compound 11663, 2-(4-benzylpiperazin-1-yl)-N-(4-(5-(difluoromethyl)-1,3,4-oxadiazol-2-yl)benzyl)-N-phenylethanesulfonamide] |
| 549 fold | 182 nM | CC1CCN(CCS(=O)(=O)N(Cc2ccc(-c3nnc(C(F)F)o3)cc2)c2ccccc2)CC1 [Compound 11675, N-(4-(5-(difluoromethyl)-1,3,4-oxadiazol-2-yl)benzyl)-2-(4-methylpiperidin-1-yl)-N-phenylethanesulfonamide] |
